Reference: patent publication US20250144088A1, “INHALABLE FORMULATION FOR USE IN THE TREATMENT OF BACTERIAL LUNG INFECTIONS” (priority 2022, published 2025)
Like-named read-outs stand apart in the source and are kept apart here.

Experiments:
J774 cells = experiment: High content analysis of drug-induced phospholipidosis (DIPL) and cytotoxicity in macrophage-like cells; type: cell-based; conditions: mouse, 48 h
Excerpt: FIG. 1: A macrophage-like cell line (J774 cells) were used to screen whether three different nanocarrier formulations differing in their lipid compositions (1: DOPC/Chol, 2: DMPC/DMPG or 3: pegylated DOPC/Chol) i) are cytotoxic to this cell type and protect the cells from BDQ-induced DIPL. A heat map was used to depict the number of cells with DIPL-induced abnormalities (first two left-hand columns) and cytotoxicity markers (columns on the right). Black fields indicate that <10% of the cells in the treatment groups were abnormal, whereas grey-to-white colored fields denote an increasing proportion of cells with abnormalities. The heatmap at the top depicts the positive control group for DIPL, which consisted of four known CADs (amiodarone, amytryptiline, azithromycin, and BDQ) administered to the cells in solution (no formulation). […] The numbers on the left-hand side of each heatmap denote the CAD dose (μM) and the total lipid concentration (μg/mL) added to each well. The values depicted the mean % abnormal cells from six replicate formulations tested in four different cell passage numbers.
High content analysis was initially used as a rapid screening tool to evaluate interactions between lipid-based nanocarrier (TargoSphere©) formulations applied as liquid dispersions and macrophage cells. […] Two of the formulations (DOPC/Chol and DMPG/DMPC) contained Fuc-C4-Chol as a C-type lectin receptor targeting ligand (+CLR). Four concentrations ranging from 15-700 μg/mL (total solid content) were tested. After an incubation time of 48 h three assays with different fluorescence markers were performed. […]
For high content analysis, images were documented using the Cytation™ 5 Cell Imaging Multi-Mode Reader (BioTek, Bad Friedrichshall, Germany) with a 40× objective in standard 2D imaging mode. For each well 6 pictures were analysed using the Gen5 software (BioTek, Bad Friedrichshall, Germany). […] For both dyes the fluorescence intensity values were measured. […] Area and size of the vacuoles were identified and measured based on negative staining. […]

[1] = tested on: Mycobacterium tuberculosis strains; conditions: cited from earlier work
[2] = p.o. 25 mg/kg, HP-β-CD solution, Irwin, 2016, male Balb/c mice, cited from earlier work
[3] = In vivo pharmacokinetics, current example (i.v., i.n., p.o.), healthy Balb-c mice
Procedure: Values represent the mean of n=6 animals per time point.
After 0.5, 3, 24, 48, 72 and 96 hours, the animals were sacrificed and samples were taken from the blood plasma, lung tissues, lung epithelial fluid and cellular fraction of the lung epithelial fluid. […]

[4] = mouse, in vivo, po, 30 mg/kg; cited from earlier work
[5] = Balb-c, mouse, in vivo, po, 25 mg/kg

Compound: CCCCc1oc2ccccc2c1C(=O)c1cc(I)c(OCCN(CC)CC)c(I)c1 [amiodarone]
- cells exhibiting abnormal phospholipid accumulation (J774 cells): ~100%

Compound: CNCCC(O)(c1cccc2ccccc12)C(c1ccccc1)c1cc2cc(Br)ccc2nc1OC (stereo not drawn) [M2, N-desmethyl-BDQ]
- attenuated activity against Mycobacterium tuberculosis strains compared to BDQ [1]: 3- to 5 fold

Compound: CC[C@H]1OC(=O)[C@H](C)[C@@H](O[C@H]2C[C@@](C)(OC)[C@@H](O)[C@H](C)O2)[C@H](C)[C@@H](O[C@@H]2O[C@H](C)C[C@H](N(C)C)[C@H]2O)[C@](C)(O)C[C@@H](C)CN(C)[C@H](C)[C@@H](O)[C@]1(C)O [azithromycin]
- cells exhibiting abnormal phospholipid accumulation (J774 cells): ~100%

Compound: COc1nc2ccc(Br)cc2cc1[C@@H](c1ccccc1)[C@@](O)(CCN(C)C)c1cccc2ccccc12 [BDQ, bedaquiline]
- cells exhibiting abnormal phospholipid accumulation (J774 cells): ~100%
- tmax ([2]; BDQ in lung tissue): 8 h
- Cmax ([2]; BDQ in plasma): 2.9 µg/mL
- tmax ([2]; BDQ in plasma): 0.5 h
- tmax ([3]; BDQ in plasma, p.o. 25 mg/kg, drug suspension, current example): 0.5 h
- Kp ([3]; Balb-c, mouse, in vivo): 62
- increase in lung exposure after intrapulmonary administration ([3]; Balb-c, mouse, in vivo): 3 fold
- Kp ([3]; Balb-c, mouse, in vivo, iv): 15
- Kp ([3]; Balb-c, mouse, in vivo, po): 11
- Tmax [3, 5]: 3 h
- tmax [3, 5]: 24 h
- tmax [4]: 24 h
